Reference: ChEMBL document CHEMBL2401737 (J Med Chem, 2013)
In brackets after ≈: the same amount, converted by molar mass.

Experiments:
[1] = test system: Human immunodeficiency virus; experiment: Antiviral activity against pseudo Human immunodeficiency virus infected in HEK293T cells after 2 days; type: functional, organism-based; settings: Human immunodeficiency virus 1, HEK-293T, 48 h
[2] = Ratio of plasma concentration in rat to IC90 for pseudo Human immunodeficiency virus; type: ADME, cell-free
[3] = Fraction unbound in Sprague-Dawley rat plasma at 1 mg/kg, iv and 5 mg/kg, po administered as capsule by equilibrium dialysis technique; type: ADME, organism-based
[4] = Volume of distribution at steady state in cynomolgus monkey at 1 mg/kg, iv and 5 mg/kg, po administered as capsule by LC-MS/MS analysis; type: ADME, organism-based, Macaca fascicularis; settings: in vivo, read-out: Vdss
[5] = Half life in dog S9 fraction; type: ADME, Canis lupus familiaris
[6] = test system: Human immunodeficiency virus 1; experiment: Antiviral activity against Human immunodeficiency virus 1 3B infected in human MT4 cells after 4 to 5 days by bioluminescence assay in presence of human serum relative to control; type: functional
[7] = Half life in human S9 fraction; type: ADME
[8] = Fraction unbound in human plasma; type: ADME, cell-free
[9] = Half life in Sprague-Dawley rat at 1 mg/kg, iv and 5 mg/kg, po administered as capsule by LC-MS/MS analysis; type: ADME, organism-based; settings: in vivo
[10] = test system: Human immunodeficiency virus; experiment: Antiviral activity against Human immunodeficiency virus harboring integrase Q148K mutant infected in human HeLa cells expressing CD4 after 2 days by beta galactosidase assay relative to wild type HIV; type: functional
[11] = biological target: Human immunodeficiency virus type 1 integrase (Human immunodeficiency virus 1, UniProt Q7ZJM1); experiment: Inhibition of HIV-1 integrase strand transfer activity using [3H]-DNA as substrate preincubated for 60 mins prior to substrate addition measured after 25 to 45 mins
[12] = test system: Human immunodeficiency virus; experiment: Ratio of IC50 for pseudo Human immunodeficiency virus to IC50 for pseudo Human immunodeficiency virus in presence of human serum albumin; type: functional
[13] = Half life in rat S9 fraction; type: ADME
[14] = Volume of distribution at steady state in Beagle dog at 1 mg/kg, iv and 5 mg/kg, po administered as capsule by LC-MS/MS analysis; type: ADME, organism-based, Canis lupus familiaris; settings: in vivo, read-out: Vdss
[15] = Oral bioavailability in Beagle dog at 5 mg/kg administered as capsule by LC-MS/MS analysis; type: ADME, organism-based, Canis lupus familiaris; settings: in vivo
[16] = Solubility of the compound in simulated gastrointestinal fluid; type: physicochemical
[17] = Oral bioavailability in cynomolgus monkey at 5 mg/kg administered as capsule by LC-MS/MS analysis; type: ADME, organism-based, Macaca fascicularis; settings: in vivo
[18] = Fraction unbound in cynomolgus monkey plasma at 1 mg/kg, iv and 5 mg/kg, po administered as capsule by equilibrium dialysis technique; type: ADME, organism-based, Macaca fascicularis
[19] = Fraction unbound in Beagle dog plasma at 1 mg/kg, iv and 5 mg/kg, po administered as capsule by equilibrium dialysis technique; type: ADME, organism-based, Canis lupus familiaris
[20] = Half life in monkey S9 fraction; type: ADME, Macaca mulatta; settings: rhesus monkey
[21] = test system: Human immunodeficiency virus 1; experiment: Antiviral activity against Human immunodeficiency virus 1 3B infected in human MT4 cells after 4 to 5 days by bioluminescence assay; type: functional, organism-based
[22] = Clearance in cynomolgus monkey at 1 mg/kg, iv and 5 mg/kg, po administered as capsule by LC-MS/MS analysis; type: ADME, organism-based, Macaca fascicularis; settings: in vivo
[23] = Plasma concentration in rat at 5 mg/kg, po after 24 hrs; type: ADME, organism-based; design: dose 5 mg/kg, route oral
[24] = Half life in rat hepatocytes; type: ADME, cell-based, Hepatocyte
[25] = Lipophilicity, log D of the compound at pH 7.4 by chromatographic analysis; type: physicochemical; settings: buffer
[26] = Half life in Beagle dog at 1 mg/kg, iv and 5 mg/kg, po administered as capsule by LC-MS/MS analysis; type: ADME, organism-based, Canis lupus familiaris; settings: in vivo
[27] = test system: Human immunodeficiency virus; experiment: Antiviral activity against pseudo Human immunodeficiency virus infected in HEK293T cells after 2 days in presence of human serum albumin; type: functional, organism-based; settings: Human immunodeficiency virus 1, HEK-293T, 48 h
[28] = Half life in human hepatocytes; type: ADME, cell-based, Hepatocyte
[29] = Clearance in Beagle dog at 1 mg/kg, iv and 5 mg/kg, po administered as capsule by LC-MS/MS analysis; type: ADME, organism-based, Canis lupus familiaris; settings: in vivo
[30] = Half life in cynomolgus monkey at 1 mg/kg, iv and 5 mg/kg, po administered as capsule by LC-MS/MS analysis; type: ADME, organism-based, Macaca fascicularis; settings: in vivo
[31] = Apparent permeability in MDCK cells; type: ADME, cell-based, Canis lupus familiaris; settings: dog
[32] = test system: Human immunodeficiency virus 1; experiment: Antiviral activity against Human immunodeficiency virus 1 Ba-L infected human PBMC after 7 days by [methyl-3H]dTTP incorporation assay; type: functional, organism-based; settings: 168 h
[33] = Oral bioavailability in Beagle dog at 5 mg/kg administered as suspension by LC-MS/MS analysis; type: ADME, organism-based, Canis lupus familiaris; settings: in vivo
[34] = Volume of distribution at steady state in Sprague-Dawley rat at 1 mg/kg, iv and 5 mg/kg, po administered as suspension by LC-MS/MS analysis; type: ADME, organism-based; settings: in vivo, read-out: Vdss
[35] = Volume of distribution at steady state in cynomolgus monkey at 1 mg/kg, iv and 5 mg/kg, po administered as suspension by LC-MS/MS analysis; type: ADME, organism-based, Macaca fascicularis; settings: in vivo, read-out: Vdss
[36] = Oral bioavailability in Sprague-Dawley rat at 5 mg/kg administered as suspension by LC-MS/MS analysis; type: ADME, organism-based; settings: in vivo
[37] = Half life in cynomolgus monkey at 1 mg/kg, iv and 5 mg/kg, po administered as suspension by LC-MS/MS analysis; type: ADME, organism-based, Macaca fascicularis; settings: in vivo
[38] = Volume of distribution at steady state in Beagle dog at 1 mg/kg, iv and 5 mg/kg, po administered as suspension by LC-MS/MS analysis; type: ADME, organism-based, Canis lupus familiaris; settings: in vivo, read-out: Vdss
[39] = Clearance in Sprague-Dawley rat at 1 mg/kg, iv and 5 mg/kg, po administered as suspension by LC-MS/MS analysis; type: ADME, organism-based; settings: in vivo
[40] = Fraction unbound in Sprague-Dawley rat plasma at 1 mg/kg, iv and 5 mg/kg, po administered as suspension by equilibrium dialysis technique; type: ADME, organism-based
[41] = Fraction unbound in cynomolgus monkey plasma at 1 mg/kg, iv and 5 mg/kg, po administered as suspension by equilibrium dialysis technique; type: ADME, organism-based, Macaca fascicularis
[42] = Oral bioavailability in cynomolgus monkey at 5 mg/kg administered as suspension by LC-MS/MS analysis; type: ADME, organism-based, Macaca fascicularis; settings: in vivo
[43] = Clearance in Beagle dog at 1 mg/kg, iv and 5 mg/kg, po administered as suspension by LC-MS/MS analysis; type: ADME, organism-based, Canis lupus familiaris; settings: in vivo
[44] = Half life in Sprague-Dawley rat at 1 mg/kg, iv and 5 mg/kg, po administered as suspension by LC-MS/MS analysis; type: ADME, organism-based; settings: in vivo
[45] = Clearance in cynomolgus monkey at 1 mg/kg, iv and 5 mg/kg, po administered as suspension by LC-MS/MS analysis; type: ADME, organism-based, Macaca fascicularis; settings: in vivo
[46] = Fraction unbound in Beagle dog plasma at 1 mg/kg, iv and 5 mg/kg, po administered as suspension by equilibrium dialysis technique; type: ADME, organism-based, Canis lupus familiaris
[47] = Half life in Beagle dog at 1 mg/kg, iv and 5 mg/kg, po administered as suspension by LC-MS/MS analysis; type: ADME, organism-based, Canis lupus familiaris; settings: in vivo

Human immunodeficiency virus type 1 integrase, sequence (Q7ZJM1 whole entry): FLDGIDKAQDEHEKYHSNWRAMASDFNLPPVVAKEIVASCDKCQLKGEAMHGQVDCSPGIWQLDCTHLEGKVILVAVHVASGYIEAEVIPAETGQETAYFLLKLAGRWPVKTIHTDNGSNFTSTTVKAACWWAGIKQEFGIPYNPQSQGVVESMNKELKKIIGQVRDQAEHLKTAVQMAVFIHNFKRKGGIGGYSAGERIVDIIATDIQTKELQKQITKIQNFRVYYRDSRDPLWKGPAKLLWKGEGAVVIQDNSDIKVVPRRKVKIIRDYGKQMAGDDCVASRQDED

SMILES: C[C@H]1CO[C@@H]2Cn3cc(C(=O)NCc4ccc(F)cc4F)c(=O)c(O)c3C(=O)N12 [CABOTEGRAVIR]
- IC50 [1]: 0.5 nM
- Ratio [2]: 0.9
- fraction unbound [3]: < 0.001
- Vd [4]: 0.09 L/kg
- half-life [5]: > 3 h
- fold change (FC) [6]: 408
- half-life [7]: > 3 h
- fraction unbound [8]: 0.004
- half-life [9]: > 18 h
- fold change (FC) [10]: 3.9
- IC50 [11]: 3 nM
- Ratio IC50 [12]: 60
- half-life [13]: > 3 h
- Vd [14]: 0.14 L/kg
- bioavailability [15]: 8%
- solubility [16]: 42 µg/mL (≈ 104 µM)
- bioavailability [17]: 6.2%
- fraction unbound [18]: 0.003
- fraction unbound [19]: 0.007
- half-life [20]: > 3 h
- IC50 [21]: 1.3 nM
- clearance [22]: 0.32 mL/min/kg
- concentration at 24 h [23]: 9590 ng/mL
- half-life [24]: > 3.67 h
- chromatographic logD [25]: 3.49
- half-life [26]: 5.7 h
- IC50 [27]: 30 nM
- IC90 [27]: 0.0491 µg/mL
- half-life [28]: > 3.67 h
- clearance [29]: 0.34 mL/min/kg
- half-life [30]: 4 h
- Papp [31]: 42.5 ×10⁻⁶ cm/s
- IC50 [32]: 0.2 nM

SMILES: C[C@@H]1CCO[C@H]2Cn3cc(C(=O)NCc4ccc(F)cc4F)c(=O)c(O)c3C(=O)N12 [DOLUTEGRAVIR]
- IC50 [1]: 1.7 nM
- fold change (FC) [6]: 75
- fold change (FC) [10]: 0.4
- IC50 [21]: 2 nM
- IC50 [27]: 22 nM
- IC90 [27]: 0.0374 µg/mL
- IC50 [32]: 0.5 nM

SMILES: C[C@@H]1CCN2C(=O)c3c(O)c(=O)c(C(=O)NCc4ccc(F)cc4)cn3C[C@@H]2O1
- IC50 [1]: 2.1 nM
- IC50 [11]: 5 nM
- Ratio IC50 [12]: 12
- IC50 [27]: 25 nM

SMILES: C[C@@H]1CCO[C@H]2Cn3cc(C(=O)NCc4ccc(F)cc4F)c(=O)c([O-])c3C(=O)N12.[Na+] [DOLUTEGRAVIR SODIUM]
- bioavailability [33]: 35%
- Vd [34]: 0.1 L/kg
- Vd [35]: 0.3 L/kg
- half-life [5]: > 3 h
- half-life [7]: > 3 h
- fraction unbound [8]: 0.007
- bioavailability [36]: 34%
- half-life [13]: > 3 h
- half-life [37]: 6 h
- Vd [38]: 0.3 L/kg
- solubility [16]: 130 µg/mL
- clearance [39]: 0.23 mL/min/kg
- fraction unbound [40]: 0.001
- fraction unbound [41]: 0.009
- half-life [20]: > 3 h
- bioavailability [42]: 25%
- clearance [43]: 2.2 mL/min/kg
- half-life [44]: 6.2 h
- concentration at 24 h [23]: 908 ng/mL
- half-life [24]: > 3.67 h
- chromatographic logD [25]: 3.67
- clearance [45]: 2.1 mL/min/kg
- fraction unbound [46]: 0.046
- half-life [28]: > 3.67 h
- half-life [47]: 5.2 h
- Papp [31]: 58.5 ×10⁻⁶ cm/s
